Measured values: PubChem BioAssay AID248 (DTP/NCI, 2004)
Where “and” joins values, the source holds several entries; their conditions need not be identical. Identical values can stand only once. Toxic doses and inconclusive results are not listed. Cut-off read from the data, not from the text of the source: active = T/C of 150% or more; inactive = T/C below 125%.

System: L1210 leukemia ip in BDF1 mice, survival T/C
Experiment: NCI In Vivo Anticancer Drug Screen. Data for tumor model L1210 Leukemia (intraperitoneal) in B6D2F1 (BDF1) mice
Details: endpoint: mean survival time, higher = longer survival
Method in brief: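 Transplantable tumor model; survival measured in treated vs vehicle control mice. Value = treated/control.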

[1] = dose: 100.0 mg/kg/injection, schedule: Q01DX001 (ip), vehicle: carboxymethylcellulose (CMC)
[2] = dose: 200.0 mg/kg/injection, schedule: Q01DX001 (ip), vehicle: carboxymethylcellulose (CMC)
[3] = dose: 400.0 mg/kg/injection, schedule: Q01DX001 (ip), vehicle: carboxymethylcellulose (CMC)
[4] = dose: 50.0 mg/kg/injection, schedule: Q01DX001 (ip), vehicle: saline
[5] = dose: 100.0 mg/kg/injection, schedule: Q01DX001 (ip), vehicle: saline
[6] = dose: 200.0 mg/kg/injection, schedule: Q01DX001 (ip), vehicle: saline
[7] = dose: 400.0 mg/kg/injection, schedule: Q01DX001 (ip), vehicle: saline
[8] = dose: 100.0 mg/kg/injection, schedule: Q01DX009 (ip), vehicle: saline
[9] = dose: 100.0 mg/kg/injection, schedule: Q04DX003 (ip), vehicle: saline with Tween-80
[10] = dose: 100.0 mg/kg/injection, schedule: Q04DX003 (ip), vehicle: saline
[11] = dose: 200.0 mg/kg/injection, schedule: Q01DX009 (ip), vehicle: saline
[12] = dose: 200.0 mg/kg/injection, schedule: Q04DX003 (ip), vehicle: saline with Tween-80
[13] = dose: 200.0 mg/kg/injection, schedule: Q04DX003 (ip), vehicle: saline
[14] = dose: 400.0 mg/kg/injection, schedule: Q01DX009 (ip), vehicle: saline
[15] = dose: 400.0 mg/kg/injection, schedule: Q04DX003 (ip), vehicle: saline with Tween-80
[16] = dose: 400.0 mg/kg/injection, schedule: Q04DX003 (ip), vehicle: saline
[17] = dose: 50.0 mg/kg/injection, schedule: Q01DX009 (ip), vehicle: saline
[18] = dose: 100.0 mg/kg/injection, schedule: Q01DX009 (ip), vehicle: saline with Tween-80
[19] = dose: 200.0 mg/kg/injection, schedule: Q01DX009 (ip), vehicle: saline with Tween-80
[20] = dose: 100.0 mg/kg/injection, schedule: Q04DX003 (ip), vehicle: Klucel (hydroxypropylcellulose) (HPC)
[21] = dose: 200.0 mg/kg/injection, schedule: Q04DX003 (ip), vehicle: Klucel (hydroxypropylcellulose) (HPC)
[22] = dose: 400.0 mg/kg/injection, schedule: Q04DX003 (ip), vehicle: Klucel (hydroxypropylcellulose) (HPC)
[23] = dose: 100.0 mg/kg/injection, schedule: Q04DX002 (ip), vehicle: Klucel (hydroxypropylcellulose) (HPC)
[24] = dose: 200.0 mg/kg/injection, schedule: Q04DX002 (ip), vehicle: Klucel (hydroxypropylcellulose) (HPC)

Measured: T/C

CCCCCCCCCCOc1ccc(C2=C(c3ccccc3)C(=O)C(c3ccccc3)=C2c2ccccc2)cc1
inactive: [1] 100 % of control | [2] 105 % of control | [3] 94 % of control

Brc1ccc(/C=N/Nc2nnc(N/N=C/c3ccc(Br)cc3)c3ccccc23)cc1
inactive: [4] 93 % of control | [5] 96 % of control | [6] 102 % of control | [7] 102 % of control

COc1cccc(/C(C)=C2\SC(=S)NC2=O)c1
inactive: [1] 100 % of control | [2] 94 % of control

OC1c2ccccc2C(O)C2C3C=CC(C3)C12 (stereo not drawn)
inactive: dose: 50.0 mg/kg/injection, schedule: Q01DX001 (ip), vehicle: carboxymethylcellulose (CMC) 87 % of control | [1] 97 % of control | [2] 100 % of control | [3] 97 % of control

OC1C(O)C(O)C(O)C(O)C1O (stereo not drawn)
inactive: [8] 97 % of control | [9] 104 % of control | [10] 98 % of control | [11] 92 % of control | [12] 98 % of control | [13] 98 % of control | dose: 375.0 mg/kg/injection, schedule: Q01DX001 (ip), vehicle: carboxymethylcellulose (CMC) 100 % of control | [14] 97 % of control | [15] 98 % of control | [16] 107 % of control | dose: 750.0 mg/kg/injection, schedule: Q01DX001 (ip), vehicle: carboxymethylcellulose (CMC) 98 % of control | dose: 1500.0 mg/kg/injection, schedule: Q01DX001 (ip), vehicle: carboxymethylcellulose (CMC) 98 % of control

CN=C([Se])NC
inactive: dose: 3.13 mg/kg/injection, schedule: Q01DX009 (ip), vehicle: saline with Tween-80 106 % of control | dose: 3.13 mg/kg/injection, schedule: Q04DX002 (ip), vehicle: saline with Tween-80 98 % of control | dose: 6.25 mg/kg/injection, schedule: Q01DX009 (ip), vehicle: saline with Tween-80 103 % of control | dose: 6.25 mg/kg/injection, schedule: Q04DX002 (ip), vehicle: saline with Tween-80 95 % of control | dose: 12.5 mg/kg/injection, schedule: Q01DX009 (ip), vehicle: saline with Tween-80 97 % of control | dose: 12.5 mg/kg/injection, schedule: Q04DX002 (ip), vehicle: saline with Tween-80 87 % of control

COc1cc2c3c(c1O)C1(C=CC(=O)C=C1)CC3N(C)CC2 (stereo not drawn)
inactive: [5] 92 % of control | [6] 94 % of control | [7] 90 % of control

NCCOc1ccc([N+](=O)[O-])cc1Cl
inactive: [17] 93 % of control | dose: 75.0 mg/kg/injection, schedule: Q01DX001 (ip), vehicle: other 96 % of control | [8] 98 % of control | [10] 121 % of control | dose: 150.0 mg/kg/injection, schedule: Q01DX001 (ip), vehicle: other 100 % of control | [11] 96 % of control | [13] 103 % of control | dose: 300.0 mg/kg/injection, schedule: Q01DX001 (ip), vehicle: other 96 % of control

CCCCCCCC(=O)N(CCN(N=O)C(=O)CCCCCCC)N=O
inactive: [5] 95 % of control | [7] 90 % of control

CCCCNC(=O)Oc1ccc(C(=O)OCCC)cc1
inactive: dose: 50.0 mg/kg/injection, schedule: Q01DX009 (ip), vehicle: saline with Tween-80 102 % of control and 106 % of control | dose: 100.0 mg/kg/injection, schedule: Q01DX009 (ip), vehicle: other 110 % of control and 86 % of control | [18] 103 % of control and 104 % of control | dose: 100.0 mg/kg/injection, schedule: Q04DX002 (ip), vehicle: other 100 % of control and 101 % of control | dose: 200.0 mg/kg/injection, schedule: Q01DX009 (ip), vehicle: other 89 % of control | [19] 96 % of control and 103 % of control | dose: 200.0 mg/kg/injection, schedule: Q04DX002 (ip), vehicle: other 93 % of control and 105 % of control | dose: 400.0 mg/kg/injection, schedule: Q01DX009 (ip), vehicle: other 93 % of control and 90 % of control | dose: 400.0 mg/kg/injection, schedule: Q04DX002 (ip), vehicle: other 96 % of control and 92 % of control

COc1cc(OC)cc(OC)c1
inactive: [20] 100 % of control | [21] 105 % of control | [22] 97 % of control

Cc1ccc(S(=O)(=O)Nc2ccc([N+](=O)[O-])cc2OS(=O)(=O)c2ccc(C)cc2)cc1
inactive: [8] 97 % of control | [11] 101 % of control | [14] 95 % of control

O=C1NC2C1C1c3ccccc3C2C12CC2 (stereo not drawn)
inactive: [23] 105 % of control | [24] 97 % of control | dose: 400.0 mg/kg/injection, schedule: Q04DX002 (ip), vehicle: Klucel (hydroxypropylcellulose) (HPC) 94 % of control

Clc1ccc(OCC2=NCCc3ccccc32)cc1
inactive: dose: 300.0 mg/kg/injection, schedule: Q01DX001 (ip), vehicle: saline 98 % of control | [7] 104 % of control

CC(=O)OCC1OC(n2c(=S)[nH]c3c(N)ncnc32)C(OC(C)=O)C1OC(C)=O (stereo not drawn)
inactive: [4] 98 % of control | [5] 98 % of control | [6] 95 % of control | [7] 98 % of control

c1ccc(CCC[P+](c2ccccc2)(c2ccccc2)c2ccccc2)cc1
inactive: dose: 2.5 mg/kg/injection, schedule: Q01DX009 (ip), vehicle: saline 113 % of control | dose: 5.0 mg/kg/injection, schedule: Q01DX001 (ip), vehicle: saline 101 % of control | dose: 5.0 mg/kg/injection, schedule: Q01DX009 (ip), vehicle: saline 118 % of control | dose: 10.0 mg/kg/injection, schedule: Q01DX001 (ip), vehicle: saline 95 % of control | dose: 10.0 mg/kg/injection, schedule: Q01DX009 (ip), vehicle: saline 102 % of control | dose: 20.0 mg/kg/injection, schedule: Q01DX001 (ip), vehicle: saline 117 % of control | dose: 40.0 mg/kg/injection, schedule: Q01DX001 (ip), vehicle: saline 117 % of control

CCCCCCC(CO)CCCC (stereo not drawn)
inactive: [20] 97 % of control | [21] 97 % of control | [22] 100 % of control

N#Cc1nn(C2OC(CO)C(O)C2O)c2ncnc(N)c12 (stereo not drawn)
inactive: dose: 25.0 mg/kg/injection, schedule: Q01DX009 (ip), vehicle: saline 110 % of control | dose: 50.0 mg/kg/injection, schedule: Q01DX005 (ip), vehicle: saline 117 % of control | [17] 114 % of control | dose: 100.0 mg/kg/injection, schedule: Q01DX005 (ip), vehicle: saline 97 % of control

O=C(Nc1ccc(Cl)cc1)Nc1ncc(Cl)s1
inactive: dose: 100.0 mg/kg/injection, schedule: Q01DX009 (ip), vehicle: Klucel (hydroxypropylcellulose) (HPC) 94 % of control | dose: 200.0 mg/kg/injection, schedule: Q01DX009 (ip), vehicle: Klucel (hydroxypropylcellulose) (HPC) 96 % of control | dose: 400.0 mg/kg/injection, schedule: Q01DX009 (ip), vehicle: Klucel (hydroxypropylcellulose) (HPC) 89 % of control

CC(C)C(N)(CCN1CCOCC1)c1cccc2ccccc12 (stereo not drawn)
inactive: [18] 99 % of control | dose: 100.0 mg/kg/injection, schedule: Q04DX002 (ip), vehicle: saline with Tween-80 88 % of control | [19] 101 % of control | dose: 200.0 mg/kg/injection, schedule: Q04DX002 (ip), vehicle: saline with Tween-80 92 % of control

O=C(Nc1ccc(Cl)cc1Cl)Nc1ccc(Cl)cc1Cl
inactive: [23] 91 % of control | [24] 94 % of control

CC(C)(Oc1ccc(Cl)cc1)C(=O)O
inactive: [5] 101 % of control | [6] 101 % of control | [7] 98 % of control

CSC(=S)NNC(=O)C1CCCCC1
inactive: [10] 106 % of control | [13] 98 % of control | [16] 104 % of control

CSC(=O)Oc1ccc([N+](=O)[O-])cc1
inactive: [18] 106 % of control | [9] 104 % of control | [19] 96 % of control | [12] 100 % of control | dose: 400.0 mg/kg/injection, schedule: Q01DX009 (ip), vehicle: saline with Tween-80 101 % of control | [15] 91 % of control
